The target of assay [1] is D(2) dopamine receptor (Rattus norvegicus, UniProt P61169). The experiment in a line: Binding affinity against Dopamine receptor D2 in rat striatum using [3H]spiperone. It is filed as tissue-based.
Assay [2] has as its system Mus musculus. In words: Tested for effective dose causing inhibition of mouse locomotor activity by intraperitoneal administration. The format is functional. The following applies: ip.
Assay [3] relates to Rattus norvegicus. In words: Tested for the inhibition of dopamine firing at 2.5 mg/kg by intraperitoneal administration. It is filed as functional. The following applies: ip.
Assay [4] relates to Rattus norvegicus. The experiment in a line: Tested for the inhibition of dopamine synthesis at 10 mg/kg by intraperitoneal administration. It is filed as functional. The following applies: ip.
Assay [5] concerns Rattus norvegicus. In words: Tested for the inhibition of dopamine firing at 2.5 mg/Kg by intraperitoneal administration. It is filed as functional. The following applies: ip.
In assay [6] the test system is Rattus norvegicus. The experiment in a line: Tested for the inhibition of dopamine synthesis at 10 mg//Kg by intraperitoneal administration. The format is functional.

The structures appear in SMILES notation.

D(2) dopamine receptor, sequence (P61169 whole entry): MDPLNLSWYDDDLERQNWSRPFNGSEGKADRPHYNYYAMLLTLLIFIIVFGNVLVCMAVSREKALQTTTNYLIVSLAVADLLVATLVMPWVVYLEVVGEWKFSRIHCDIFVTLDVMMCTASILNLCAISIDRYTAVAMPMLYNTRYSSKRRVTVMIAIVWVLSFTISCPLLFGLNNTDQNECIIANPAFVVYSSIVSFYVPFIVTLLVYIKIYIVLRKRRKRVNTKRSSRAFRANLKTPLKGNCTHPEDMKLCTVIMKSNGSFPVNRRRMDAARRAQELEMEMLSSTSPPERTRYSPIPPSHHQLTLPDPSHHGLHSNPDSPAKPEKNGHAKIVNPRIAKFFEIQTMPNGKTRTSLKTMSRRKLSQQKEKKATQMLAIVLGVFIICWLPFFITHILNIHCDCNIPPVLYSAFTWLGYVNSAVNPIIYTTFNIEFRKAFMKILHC

Consider `Fc1ccc(C2=CCN(CCCCc3ccncc3)CC2)cc1`, for which the Ki (as a rule, the dissociation constant of the complex between target and ligand, obtained from inhibition or displacement) in assay [1] is 5.31 µM. In addition, the 50% effect level in assay [2] (ED50) was put at a dose of 3.8 mg/kg. In addition, the inhibition in vivo – broadly, the drop in the measured response relative to a control, in per cent – at 2.5 mg/kg in assay [3] turned out to be 9%. In assay [4], this compound registered an inhibition in vivo at 10 mg/kg of 0%.

For the compound `Clc1ccc(C2=CCN(CCCCc3ccncc3)CC2)cc1`, in assay [1], the affinity corresponds to a Ki of 0.456 µM.

`COc1ccc(C2=CCN(CCCCc3ccncc3)CC2)cc1`: the Ki in assay [1] came out at 1.64 µM. Also, the ED50 (usually the dose that gives a 50% effect, or the effect in half of the subjects) in assay [2] came out at 7.4 mg/kg. Further, the inhibition in vivo at 2.5 mg/kg in assay [3] is 6%. The inhibition in vivo at 10 mg/kg in assay [4] turned out to be 18%.

In assay [1], `C1=C(c2ccccn2)CCN(CCCCc2ccncc2)C1` showed a Ki of 0.322 µM.

Turning to `C1=C(c2ccc3ccccc3c2)CCN(CCCCc2ccncc2)C1`, in assay [1], the affinity corresponds to a Ki of 0.66 µM.

In assay [1], `C1=C(c2c[nH]c3ccccc23)CCN(CCCCc2ccncc2)C1` displayed a Ki of 0.286 µM.

`C1=C(c2ccccc2)CCN(CCCCc2ccncc2)C1` gave an inhibitory constant (Ki) in assay [1] of 0.0691 µM. Moreover, the 50% effect level in assay [2] (ED50) was put at a dose of 0.6 mg/kg. In assay [5], this compound registered an inhibition in vivo at 2.5 mg/kg of 80%. Besides, the Inhibition (in general, the drop in the measured response relative to a control, in per cent) in assay [6] was 87%.

In assay [1], `Cc1ccc(C2=CCN(CCCCc3ccncc3)CC2)cc1` had a Ki of 0.957 µM.

With `C1=C(c2cccs2)CCN(CCCCc2ccncc2)C1`, the Ki in assay [1] is 0.496 µM.
